Measurements as given in patent US20110033390A1, “MR IMAGING AGENT OR MEDIUM COMPRESSING HYPERPOLARISED 13C ALANINE AND METHODS OF IMAGING WHEREIN SUCH AN IMAGING MEDIUM IS USED” (priority 2008, published 2011).

What was measured:
[1] = Solid state polarisation after DNP, by solid state 13C-NMR; type: physicochemical; conditions: DNP at 1.2 K, 3.35 T, microwave 93.90 GHz; trityl radical and Gd-chelate present
Source text: The level of polarisation may for instance be determined by solid state ^13C-NMR measurements in solid hyperpolarised ^13C-alanine, e.g. solid hyperpolarised ^13C-alanine obtained by dynamic nuclear polarisation (DNP) of ^13C-alanine. The solid state ^13C-NMR measurement preferably consists of a simple pulse-acquire NMR sequence using a low flip angle. The signal intensity of the hyperpolarised ^13C-alanine in the NMR spectrum is compared with signal intensity of ^13C-alanine in a NMR spectrum acquired before the polarisation process. The level of polarisation is then calculated from the ratio of the signal intensities of before and after polarisation.
The probe is inserted into the probe-retaining container, submerged in the liquid helium and irradiated with microwaves, preferably at a frequency of about 94 GHz at 200 mW. The level of polarisation may for instance be monitored by solid state ^13C-NMR measurements of the ^13C-nuclei in the frozen composition comprising the hyperpolarised sample. […] The level of polarisation is then calculated from the ratio of the signal intensities of before and after polarisation.
32.5 mg (0.258 mmol) of the ^13C1-alaninium chloride obtained in Example 1a was added to 42 mg of a stock solution in a micro test tube. […] Polarisation was followed by solid state ^13C-NMR and the solid state polarisation was determined to be 40%. […]

[2] = mouse, in vivo
Protocol: In another preferred embodiment, the imaging medium comprising hyperpolarised ^13C-alanine is administered repeatedly, thus allowing dynamic studies. This is a further advantage of the method according to the invention compared to other MR detection methods using conventional MR contrast agents which—in higher doses—may show toxic effects.

[3] = Relaxation / loss of polarisation in solution as a function of pH; type: physicochemical; conditions: solutions with a pH above 7
Source text: If the sample used in the composition for DNP is a carboxylate salt of ^13C-alanine, said salt needs to be converted to the free ^13C-alanine by reaction (neutralization) with an acid. […] Thus, if a carboxylate salt of ^13C-alanine was used in the composition for DNP, the liquefaction and neutralization of the solid composition comprising the hyperpolarised carboxylate salt of ^13C-alanine needs to be carried out carefully in order to avoid loss of polarisation. Neutralization may be carried out simultaneously or subsequently to the liquefaction, for the latter it must be taken care that neutralization is carried out quickly and directly after liquefaction. Thus, in one embodiment the liquefaction is carried out by melting or dissolution of the frozen composition and neutralization with an acid is quickly carried out after the frozen composition was dissolved/melted. In another embodiment, liquefaction and neutralization are carried out simultaneously, e.g. by dissolving the frozen composition in a dissolution medium which is or contains an acid that is capable of converting the hyperpolarised carboxylate salt of ^13C-alanine to ^13C-alanine. In yet another embodiment the acid is added to the probe-retaining cup which contains the frozen composition in the dynamic nuclear polarisation process. […] The most preferred acid is HCl since it is cheap and readily available.

[4] = tested on: mice (whole body); assay: In vivo 13C-MR spectroscopy in mice (whole body); design: species or system mouse
Protocol: 175 μl of an imaging medium which was prepared as described in Example 1 was injected into a C57B1/6 mouse over a time period of 6 s. The ^13C1-alanine concentration in said imaging medium was approximately 50 mM and 3 animals were used in the experiment. A rat size whole body coil (tuned for proton and carbon) was placed over the animal and ^13C-MR spectroscopy was carried out in a 9.4 T magnet. A dynamic set of ^13C-MR spectra (in total 5) was acquired every 5 s with a 15 degree RF pulse. Metabolism was seen to ^13C1-lactate (approximately 1% of the ^13C1-lactate signal), see FIG. 1. […] The following decay time was calculated from the MR spectra: ^13C1-lactate 33 s. […] It is thus favourable to detect the lactate signal which due to its slow decay provides a larger MR detection window.

[5] = tested on: mouse liver; assay: In vivo 13C-MR spectroscopy in mice (liver); conditions: C57B1/6 mouse, surface coil over liver
Protocol: 175 μl of an imaging medium which was prepared as described in Example 1 was injected into a C57B1/6 mouse over a time period of 6 s. The ^13C1-alanine concentration in said imaging medium was approximately 55 mM. A surface coil (tuned for proton and carbon) was positioned over the liver of the animal and ^13C-MR spectroscopy was carried out in a 9.4 T magnet. A dynamic set of ^13C-MR spectra (in total 15) was acquired every 5 s with a 30 degree RF pulse. This experiment confirmed that ^13C1-lactate is building up during the time course of the experiment, see FIG. 3.

[6] = tested on: Hep-G2 cells; assay: In vitro 13C-MR spectroscopy with hyperpolarised 13C1-alanine imaging medium; type: cell-based, human; conditions: 3 mM 13C1-alanine, 10x10^6 Hep-G2 cells, 20 s incubation
Protocol: An imaging medium was prepared as described in Example 1 and 100 μl of the imaging medium (3 mM ^13C1-alanine) was mixed into 10×10^6 Hep-G2 cells (human hepatocellular carcinoma cells). A single ^13C-MR spectrum was acquired after a total of 20 s incubation time with a 90 degree RF pulse. ^13C1-pyruvate and ^13C1-lactate were identified in the spectrum. The conversion of alanine was approximately 0.1% to both lactate and pyruvate.

[7] = Liquid state polarisation after dissolution and neutralization, by liquid state 13C-NMR at 400 MHz; type: physicochemical
Protocol: In a similar way, the level of polarisation for hyperpolarised ^13C-alanine in solution may be determined by liquid state NMR measurements. Again the signal intensity of the hyperpolarised ^13C-alanine in solution is compared with the signal intensity of the ^13C-alanine in solution before polarisation. The level of polarisation is then calculated from the ratio of the signal intensities of ^13C-alanine before and after polarisation.
After 150 minutes of dynamic nuclear polarisation, the obtained frozen polarised solution was dissolved in a dissolution medium containing 6 ml of a phosphate buffer (20 mM, pH 6.8, 100 mg/l EDTA), aqueous NaOH (27 μl 12 M solution, 1 eq) and 30 mg NaCl. The pH of the final liquid was 6.8.
Liquid state polarisation was determined by liquid state ^13C-NMR at 400 MHz to be 35%.
After 120 minutes of dynamic nuclear polarisation, the obtained frozen polarised solution was dissolved in a dissolution medium containing 6 ml BIS TRIS (40 mM, pH 6, 100 mg/l EDTA, 0.9% NaCl). The pH of the final solution containing the dissolved composition was 6.
Liquid state polarisation was determined by liquid state ^13C-NMR at 400 MHz to be 16%.

[8] = tested on: mouse heart; assay: In vivo 13C-MR spectroscopy in mice (heart)
Protocol: 175 μl of an imaging medium which was prepared as described in Example 1 was injected into a C57B1/6 mouse over a time period of 6 s. The ^13C1-alanine concentration in said imaging medium was about 55 mM. A surface coil (tuned for proton and carbon) was positioned over the heart of the animal and ^13C-MR spectroscopy was carried out in a 9.4 T magnet. A dynamic set of ^13C-MR spectra (in total 10) was acquired every 5 s with a 30 degree RF pulse. […] The lactate seen in the experiment is expected to originate from pyruvate. […] Comparing Examples 5 and 6, a different metabolic profile is obtained for the liver and the heart showing that ^13C-alanine is a tissue specific metabolic marker.

C[C@H](N)[13C](=O)O.Cl [^13C1-alaninium chloride]
solid state polarisation [1]: 40%

CC(N)[13C](=O)[O-].[Na+] (stereo not drawn) [sodium ^13C1-2-amino-propanoate]
solid state polarisation [1]: 18%

CC(N)C(=O)O (stereo not drawn) [hyperpolarised ^13C-alanine, 2-amino-propanoic acid]
tolerability [2]: well tolerated | relaxation rate / loss of polarisation [3]: high relaxation rates

C[C@H](O)[13C](=O)O [^13C1-lactate]
decay time calculated from the MR spectra ([4]; 13C1-lactate signal after injection of hyperpolarised 13C1-alanine, mouse whole body): 33 s

CC(N)[13C](=O)O (stereo not drawn) [^13C1-alanine]
metabolism to 13C1-lactate (relative signal) ([4]; C57B1/6 mouse, 175 µl of approx. 50 mM injected over 6 s, whole body coil, 9.4 T): approximately 1% | pyruvate signal ([4]; mouse whole body): No pyruvate signal could be detected | 13C1-lactate signal over the time course ([5]; 175 µl of approx. 55 mM): building up | 13C1-pyruvate and 13C1-bicarbonate signals ([5]; 15 combined spectra): could be detected | conversion of alanine to lactate [6]: approximately 0.1% | conversion of alanine to pyruvate [6]: approximately 0.1% | liquid state polarisation ([7]; Example 1c: from 13C1-alaninium chloride after 150 min DNP, dissolved in phosphate buffer/NaOH, final pH 6.8): 35% | liquid state polarisation ([7]; Example 2: from sodium 13C1-2-amino-propanoate after 120 min DNP, dissolved in BIS TRIS, HCl neutralization, final pH 6): 16% | build-up of 13C1-lactate ([8]; C57B1/6 mouse, 175 µl of about 55 mM, surface coil over heart): noteworthy slow | pyruvate signal ([8]; mouse heart): absence of pyruvate
